Ten compounds from paper PMC10511884 (Frontiers in Chemistry, 2023) can be followed below.

The term IC50 denotes the concentration that gives 50% inhibition. A higher IC50 goes with weaker potency.

For one assay, the target named is T1, COX-1 (Ovis aries, UniProt P05979).
T1 construct: purchased Sigma-Aldrich C0733-5000UN
T1 sequence (P05979 25-600): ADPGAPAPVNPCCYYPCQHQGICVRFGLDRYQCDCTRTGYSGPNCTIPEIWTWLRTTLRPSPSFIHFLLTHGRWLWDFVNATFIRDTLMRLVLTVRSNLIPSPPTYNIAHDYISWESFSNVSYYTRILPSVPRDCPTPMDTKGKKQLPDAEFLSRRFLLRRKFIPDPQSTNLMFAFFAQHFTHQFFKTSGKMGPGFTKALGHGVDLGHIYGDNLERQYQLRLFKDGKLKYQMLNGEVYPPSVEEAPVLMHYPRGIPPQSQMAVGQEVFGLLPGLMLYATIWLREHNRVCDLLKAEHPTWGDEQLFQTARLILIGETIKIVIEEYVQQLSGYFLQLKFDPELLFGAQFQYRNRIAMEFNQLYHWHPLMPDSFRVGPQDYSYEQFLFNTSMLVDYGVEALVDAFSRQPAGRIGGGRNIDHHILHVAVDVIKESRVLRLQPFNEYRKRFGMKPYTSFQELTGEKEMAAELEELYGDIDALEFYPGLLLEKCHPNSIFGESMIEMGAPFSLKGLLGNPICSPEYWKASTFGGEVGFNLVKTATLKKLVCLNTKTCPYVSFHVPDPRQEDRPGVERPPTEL
As to the kind of experiment: In vitro COX-1 enzyme inhibitory assay. The assay is classed as biochemical, sheep. As to conditions: mean ± SEM; n = 3. The protocol: (§1) In a nutshell, the test specimens were made in progressively higher concentrations. Furthermore, enzyme solutions for COX-1 from a sheep source (CAT: C0733-5000UN, Sigma-Aldrich) and COX-2 from a human recombinant source (CAT: C0858) were developed. COX-1 has a concentration of 0.7–0.8 g/L, whereas COX-2 has a concentration of 300 units/mL. […] The COX-2 enzyme solution was primed at 300 U/mL levels. 10 μL of the enzyme solution was kept on ice (4°C) for 5–6 min before 50 µL of the required co-factor solution was added. This solution contains 1 mM hematin in a 0.1 M Tris-buffer with pH 8.0, 0.24 mM tetramethyl-p-phenylenediamine dihydrochloride (TMPD), and 0.9 mM glutathione. Then, for the next 5–10 min, the enzyme solution (60 µL) and experiment samples (20 µL) of different strengths has been kept at the normal temperature. Similar to that, 20 µL of 30 mM arachidonic acid was utilized to start the procedure. The mixture’s temperature was held at 37°C for an additional 15 min. A UV-visible spectrophotometer was used to determine the absorbance at 570 nm after which the process was halted by adding HCl. Using the absorbance value per unit time, the percentage of COX-2 inhibition was computed. Celecoxib served as the standard control in the present study.

The target in another assay is T2, COX-2 (Homo sapiens, UniProt P35354).
T2 construct: purchased Sigma-Aldrich C0858
T2 sequence (P35354 18-604): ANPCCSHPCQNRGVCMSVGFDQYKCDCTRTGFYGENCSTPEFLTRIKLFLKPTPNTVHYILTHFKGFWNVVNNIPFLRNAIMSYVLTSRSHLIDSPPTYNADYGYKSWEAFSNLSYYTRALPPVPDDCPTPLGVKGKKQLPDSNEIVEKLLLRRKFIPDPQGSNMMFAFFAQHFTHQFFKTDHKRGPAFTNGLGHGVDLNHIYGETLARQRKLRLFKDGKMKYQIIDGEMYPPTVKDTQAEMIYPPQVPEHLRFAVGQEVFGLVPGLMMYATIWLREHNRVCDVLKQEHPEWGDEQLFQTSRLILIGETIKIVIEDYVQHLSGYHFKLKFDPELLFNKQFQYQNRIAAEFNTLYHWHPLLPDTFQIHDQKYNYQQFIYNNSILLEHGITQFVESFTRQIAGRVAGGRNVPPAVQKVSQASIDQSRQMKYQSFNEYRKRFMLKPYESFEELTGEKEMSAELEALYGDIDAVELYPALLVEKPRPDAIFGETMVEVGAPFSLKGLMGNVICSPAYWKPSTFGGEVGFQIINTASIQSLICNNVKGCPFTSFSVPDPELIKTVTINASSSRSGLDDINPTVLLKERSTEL
As to the kind of experiment: In vitro COX-2 enzyme inhibitory assay. The assay is classed as biochemical. The following applies: mean ± SEM; n = 3. On the procedure:
as §1

`COc1ccc(C2NC(=O)NC(C(F)(F)F)=C2c2cc(-c3ccccc3)on2)cc1O` (centres unmarked) [Compound C3, 4-(3-hydroxy-4-methoxyphenyl)-5-(5-phenylisoxazol-3-yl)-6-(trifluoromethyl)-3,4-dihydropyrimidin-2(1H)-one]: the concentration for half-maximal inhibition (IC50) is 22.6 ± 0.9 µM against COX-1 and 0.93 ± 0.01 µM against COX-2.
Taken in the same sequence, the figures for `Cc1cc(C2=C(C(F)(F)F)NC(=O)NC2c2ccccc2)no1` (centres unmarked) [Compound C1, 5-(5-methylisoxazol-3-yl)-4-phenyl-6-(trifluoromethyl)-3,4-dihydropyrimidin-2(1H)-one] were 239 ± 2.3 µM and 2.52 ± 0.02 µM.
Taken in the same sequence, the figures for `COc1ccc(C2NC(=O)NC(C(F)(F)F)=C2c2cc(-c3ccco3)on2)cc1` (centres unmarked) [Compound C6, 5-(5-(furan-2-yl)isoxazol-3-yl)-4-(4-methoxyphenyl)-6-(trifluoromethyl)-3,4-dihydro-pyrimidin-2(1H)-one] were 34 ± 1.31 µM and 0.55 ± 0.03 µM.
Taken in the same sequence, the figures for `COc1ccc(C2NC(=O)NC(C(F)(F)F)=C2c2cc(C)on2)cc1` (centres unmarked) [Compound C2, 4-(4-methoxyphenyl)-5-(5-methylisoxazol-3-yl)-6-(trifluoromethyl)-3,4-dihydro-pyrimidin-2(1H)-one] were 172 ± 1.9 µM and 2.43 ± 0.05 µM.
As for `O=C1NC(C(F)(F)F)=C(c2cc(-c3ccco3)on2)C(c2ccco2)N1` (centres unmarked) [Compound C5, 4-(furan-2-yl)-5-(5-(furan-2-yl)isoxazol-3-yl)-6-(trifluoromethyl)-3,4-dihydropyrimidin-2(1H)-one], the IC50 on COX-1 was found to be 35.5 ± 1.49 µM; against COX-2 it was 0.85 ± 0.04 µM.
With `Cc1ccc(C2NC(=O)NC(C(F)(F)F)=C2c2cc(-c3ccco3)on2)cc1` (centres unmarked) [Compound C8, 5-(5-(furan-2-yl)isoxazol-3-yl)-4-p-tolyl-6-(trifluoromethyl)-3,4-dihydropyrimidin-2(1H)-one], the IC50 at COX-1 was 91.19 ± 0.51 µM; on COX-2 it was 0.79 ± 0.05 µM.
For `O=C1NC(C(F)(F)F)=C(c2cc(-c3ccncc3)on2)C(c2ccncc2)N1` (centres unmarked) [Compound C10, 4-(Pyridin-4-yl)-5-(5-(pyridin-4-yl)isoxazol-3-yl)-6-(trifluoromethyl)-3,4 dihydropyrimidin-2(1H)-one], in that order: 61.9 ± 1.11 µM and 20 ± 0.4 µM.
For `O=C1NC(C(F)(F)F)=C(c2cc(-c3ccncc3)on2)C(c2ccccc2)N1` (centres unmarked) [Compound C9, 4-phenyl-5-(5-(pyridin-4-yl)isoxazol-3-yl)-6-(trifluoromethyl)-3,4-dihydropyrimidin-2(1H)-one], the IC50 at COX-1 amounted to 101 ± 1.17 µM; at COX-2 it was 1.7 ± 0.1 µM.
Taken in the same sequence, the figures for `COc1ccc(C2NC(=O)NC(C(F)(F)F)=C2c2cc(-c3ccc(-c4ccccc4)cc3)on2)cc1` (centres unmarked) [Compound C4, 5-(5-([1,1′-biphenyl]-4-yl)isoxazol-3-yl)-4-(4-methoxyphenyl)-6-(trifluoromethyl)-3,4-dihydropyrimidin-2(1H)-one] were 66.8 ± 1.84 µM and 8.27 ± 0.2 µM.
Turning to `O=C1NC(C(F)(F)F)=C(c2cc(-c3ccco3)on2)C(c2ccc(C(F)(F)F)cc2)N1` (centres unmarked) [Compound C7, 5-(5-(furan-2-yl)isoxazol-3-yl)-6-(trifluoromethyl)-4-(4-(trifluoromethyl)phenyl)-3,4-dihydropyrimidin-2(1H)-one], the values for the IC50 against COX-1 and against COX-2 were 83.8 ± 0.96 µM and 0.74 ± 0.1 µM, respectively.
